Results as given in patent US20160158251A1, “COMPOSITION FOR PREVENTING OR TREATING MUSCULAR ATROPHY OR PROMOTING MUSCULAR REGENERATION IN SUBJECT COMPRISING SULFONAMIDE COMPOUND AND USE THEREOF” (Samsung Electronics Co., Ltd., priority 2014, published 2016).

What was measured:
[1] = test system: Human skeletal muscle satellite (HSkMS) cells; test: Proliferation of human skeletal muscle satellite cells (cell count by hemocytometer, serum and growth factor starvation); type: cell-based; conditions: 24 hours, in comparison with serum starvation (FIG. 1)
Method: Human skeletal muscle satellite (HSkMS) cells were prepared to identify whether proliferation of skeletal muscle satellite cells is promoted by sulfonamide compounds.
The seeded HSkMS cells were cultured at 37° C. in a 5% CO2 incubator for 24 hours. Then, 0.1 μM, 1 μM, and 10 μM of each of sulfadiazine (Sigma-Aldrich), sulfamethoxazole (Sigma-Aldrich), sulfadoxine (Sigma-Aldrich), and sulfaguanidine (Sigma-Aldrich), as sulfonamide compounds, were added to the HSkMS cells, and the cells were incubated at 37° C. in a 5% CO2 incubator for 24 hours. After the incubation, the numbers of HSkMS cells were calculated using a hemocytometer.

Atrogin-1 = Atrogin-1 mRNA expression in differentiated C2C12 cells treated with dexamethasone (real time PCR); type: cell-based, mouse; conditions: sulfadiazine (1, 10 or 100 μM) 24 hours, then 2 μM dexamethasone 24 hours, vs. dexamethasone only (FIG. 2A)
Method: (§1) C2C12 cell lines (mouse gastrocnemius muscle, ATCC® CRL-1772™) were seeded in a 10% FBS/DMEM and incubated at 37° C. in a 5% CO2 incubator. When the cells were 70% confluent, the culture medium was replaced with 2% FBS/DMEM and the cells were cultured for 4 days to completely induce differentiation into muscle cells. C2C12 cell lines are mouse myoblast cell lines obtained by continuous culture of myoblast cells cultured from gastrocnemius muscle of C3H mice.
(§2) When C2C12 cells were completely differentiated into muscle cells, the culture medium was removed therefrom, and 4 ml of a fresh culture medium including 1 μM, 10 μM, or 100 μM of sulfadiazine (Sigma Aldrich) was added thereto, and then, the cells were cultured at 37° C. in a 5% CO2 incubator for 24 hours. […]
(§3) A Trizol reagent (Invitrogen) was added to the collected cells, and total RNA was separated therefrom according to manufacturer's protocols. […] Amounts of mRNA of Atrogin-1 and MuRF-1 were quantified using a real time PCR device (MyiQPCR instrument, BioRad) that is a device measuring SYBR Green. […]
(§4) Values obtained via amplification were normalized to GAPDH gene expression, and relative expression levels of mRNA of Atrogin-1 and MURF-1 were quantified. The quantified relative expression levels (arbitrary unit (AU)) of mRNA of Atrogin-1 and MURF-1 are illustrated in FIGS. 2A and 2B, respectively (*: p<0.05 vs. dexamethasone)

MuRF-1 = MuRF-1 mRNA expression in differentiated C2C12 cells treated with dexamethasone (real time PCR); type: cell-based, mouse; conditions: sulfadiazine (1, 10 or 100 μM) 24 hours, then 2 μM dexamethasone 24 hours, vs. dexamethasone only (FIG. 2B)
Method: as §1, §2, §3, §4

| Compound | proliferation of the HSkMS cells ([1]; 10 μM) | proliferation of the HSkMS cells ([1]; 1 μM) | expression of mRNA of Atrogin-1 (Atrogin-1) | expression of mRNA of MuRF1 (MuRF-1) |
| --- | --- | --- | --- | --- |
| Cc1cc(NS(=O)(=O)c2ccc(N)cc2)no1 [sulfamethoxazole] | promoted in all groups, in comparison with serum starvation, except for the groups | – | – | – |
| NC(N)=NS(=O)(=O)c1ccc(N)cc1 [sulfaguanidine] | promoted in all groups, in comparison with serum starvation, except for the groups | – | – | – |
| Nc1ccc(S(=O)(=O)Nc2ncccn2)cc1 [sulfadiazine] | promoted in all groups, in comparison with serum starvation, except for the groups | promoted in all groups, in comparison with serum starvation, except for the groups | decreased | decreased |
